Experimental data: patent US20180141987A1, “Novel Synthetic Antimicrobial Peptides” (priority 2014, published 2018)
Values after ≈ are worked out from the molar mass of the structure shown. Like-named read-outs stand apart in the source and are kept apart here. No end group written: not given here.

Columns and labels:
Salmonella enterica = assay: Inhibitory activity against bacteria (MIC 90); format: cell-based
Escherichia coli = assay: microbe, parasite or virus in culture; format: cell-based
human erythrocyte = assay: Hemolytic activity, release of haemoglobin from erythrocyte suspensions in PBS; format: cell-based; conditions: human erythrocytes
Method: The toxicity of the present cationic, alpha-helical antimicrobial peptides on blood cells to determine their suitability for systemic application was performed. Lysis of erythrocyte membranes was determined by monitoring the release of haemoglobin from human erythrocyte suspensions in PBS, in relation to complete (100%) haemolysis. Table 13(a) provides the % hemolytic activity observed when a series of concentrations of the present peptides were brought in contact with erythrocytes. There was absence of any hemolytic activity upto concentrations in the range of 130 to 200 μg/mL. However at concentration above 250 μg/mL, a minimal level of hemolysis was observed.

Staphylococcus aureus = assay: microbe, parasite or virus in culture; format: cell-based
Hela cells = assay: MTT assay, cytotoxicity; format: cell-based, human; conditions: concentration not given
Method: (§1) The cytolytic acivity of the present peptides was assessed by the MTT (3-(4,5-dimethylthiazol-2-yl)-2,5-diphenyltetrazolium bromide) assay against human cell lines (Hela cells). The cytotoxicity of on HeLa cells was assessed Approximately 10^4 cells per well were seeded in a 96-well plate and incubated for 12-16 h at 37° C.

MTT assay, cytotoxicity = format: cell-based, human; conditions: human, HeLa cells, concentration not given
Method: as §1

Pseudomonas aeruginosa = assay: microbe, parasite or virus in culture; format: cell-based
Aspergillus niger = test system: Aspergillus niger
Method: (§2) iii. In Vitro Antifungal Assays • In vitro antifungal assays were performed in RPMI-1640 medium by broth micro dilution according to the Clinical and Laboratory Standards Institute (CLSI, formerly NCCL) methods M27-A3 and M-38-A2. […] Amphotericin B was used as positive control.

Fusarium oxysoprum = test system: Fusarium oxysoprum
Method: as §2

Candida albicans = test system: Candida albicans
Method: as §2

Neurospora crassa = test system: Neurospora crassa
Method: as §2

Cryptococcus = test system: Cryptococcus
Method: as §2

Ustilago maydis = test system: Ustilago maydis
Method: as §2

[1] = test system: human and plant pathogens; assay: In vitro antifungal assays, all cultures tested; format: cell-based; conditions: human and plant pathogenic fungi
Method: as §2

Yeast-Hypha transition = Yeast-Hypha transition inhibition; format: cell-based; conditions: at 4 μg/ml; Table 10 has no title
Method: ii. Yeast-Hypha Transition Inhibition. • The peptides were also tested for the Yeast-Hypha transition inhibition. In many human and plant pathogenic fungi direct correlation between the ability of fungus to switch between yeast (Y) and hypha (H) forms and pathogenicity have been reported (Jacobsen et al., 2012; Thompson et al., 2011; Nadal et al., 2008).

[2] = test system: Gram positive and Gram negative bacteria; assay: Inhibitory activity against bacteria, all cultures; format: cell-based
Candida albicans cells [3] = assay: ROS generation (DCFH-DA fluorescence); format: cell-based; conditions: peptides at their respective MICs, FIG. 6
Method: (§3) FIG. 6 depicts the membrane damage and reactive oxygen species (ROS) generation by the instant peptides (a) Untreated Control, (b) positive control (c) […] (known peptide sequence, not novel, not to be covered in the invention, was used only for comparison), (d)Seq IDNo. 2, (e) Seq IDNo. 3 and (f) Seq IDNo. 1, after incubation of peptides at their respective MICs with the Candida albicans cells. i. Membrane Damage and ROS Generation • The membrane damage and formation of ROS (Reactive oxygen species) are the antifungal mechanisms of a number of antimicrobial peptides. The membrane damage (middle panel) and ROS generation by the instant peptides (right panel) was monitored after incubation of peptides at their respective MICs with the Candida albicans cells as depicted in FIG. 6(a-f). A red fluorescence resulting from the membrane impermeable DNA binding dye propidium iodide was observed indicating the membrane damage in the cells due to action of peptides under study. A green fluorescence resulting from the oxidation of dye Dichloro-dihydro-fluorescein diacetate DCFH-DA (non-fluorescent molecule) into DCF 2',7'-dichlorofluorescein. (fluorescent molecule) was observed indicating the presence of ROS.

Candida albicans cells [4] = assay: Membrane damage (propidium iodide fluorescence); format: cell-based; conditions: peptides at their respective MICs, FIG. 6
Method: as §3

Molecule: FRLKFHLKF-NH2 [Seq Id No: 2]
- MIC 90 (Salmonella enterica): 2 µg/mL
- MIC 90 (Escherichia coli): 2 µg/mL
- Hemolytic activity (human erythrocyte; 256 μg/mL): 2%
- Hemolytic activity (human erythrocyte; 512 μg/mL): 3.2%^
- Hemolytic activity (human erythrocyte; 1024 μg/mL): 7%
- MIC 90 (Staphylococcus aureus): 2 µg/mL
- O.D. (Treated Cells) (Hela cells): 1.0185
- viability (MTT assay, cytotoxicity): 100%
- MIC 90 (Pseudomonas aeruginosa): 2 µg/mL
- MIC 90 (Aspergillus niger): 16 µg/mL
- MIC 90 (Fusarium oxysoprum): 8 µg/mL
- MIC 90 (Candida albicans): 8 µg/mL
- MIC 90 (Neurospora crassa): 8 µg/mL
- MIC 90 (Cryptococcus): 4 µg/mL
- MIC 90 (Ustilago maydis): 16 µg/mL

Molecule: CC1(C)S[C@@H]2[C@H](NC(=O)[C@H](N)c3ccccc3)C(=O)N2[C@H]1C(=O)O [Ampicillin, ampicillin, reference compound]
- MIC 90 (Salmonella enterica; read-out: MIC 90): 4 µg/mL (≈ 11.4 µM)
- MIC 90 (Escherichia coli; Escherichia coli, read-out: MIC 90): 4 µg/mL (≈ 11.4 µM)
- MIC 90 (Staphylococcus aureus; Staphylococcus aureus, read-out: MIC 90): 2 µg/mL (≈ 5.72 µM)
- MIC 90 (Pseudomonas aeruginosa; Pseudomonas aeruginosa, read-out: MIC 90): 2 µg/mL (≈ 5.72 µM)

Molecule: C[C@@H]1[C@H](O)[C@@H](C)/C=C/C=C/C=C/C=C/C=C/C=C/C=C/[C@H](O[C@@H]2O[C@H](C)[C@@H](O)[C@H](N)[C@@H]2O)C[C@@H]2O[C@](O)(C[C@@H](O)C[C@@H](O)[C@H](O)CC[C@@H](O)C[C@@H](O)CC(=O)O[C@H]1C)C[C@H](O)[C@H]2C(=O)O [Ampho B, Amphotericin B, reference compound]
- MIC 90 (Aspergillus niger; Aspergillus niger, RPMI-1640): 8 µg/mL (≈ 8.66 µM)
- MIC 90 (Fusarium oxysoprum; Fusarium oxysoprum, RPMI-1640): 8 µg/mL (≈ 8.66 µM)
- MIC 90 (Candida albicans; Candida albicans, RPMI-1640): 4 µg/mL (≈ 4.33 µM)
- MIC 90 (Neurospora crassa; Neurospora crassa, RPMI-1640): 4 µg/mL (≈ 4.33 µM)
- MIC 90 (Cryptococcus; Cryptococcus, RPMI-1640): 4 µg/mL (≈ 4.33 µM)
- MIC 90 (Ustilago maydis; Ustilago maydis, RPMI-1640): 4 µg/mL (≈ 4.33 µM)

Molecule: VLKKLKKLC-NH2 [Seq Id No: 3]
- MIC 90 (Salmonella enterica): 2 µg/mL
- MIC 90 (Escherichia coli): 2 µg/mL
- Hemolytic activity (human erythrocyte; 256 μg/mL): 2%
- Hemolytic activity (human erythrocyte; 512 μg/mL): 2.9%
- Hemolytic activity (human erythrocyte; 1024 μg/mL): 5.7%
- Antifungal potency in words, all the cultures tested [1]: moderate activity
- MIC 90 (Staphylococcus aureus): 4 µg/mL
- O.D. (Treated Cells) (Hela cells): 0.8325
- viability (MTT assay, cytotoxicity): 88%
- MIC 90 (Pseudomonas aeruginosa): 4 µg/mL
- Y-H transition inhibition (Yeast-Hypha transition): 87.5%
- MIC 90 (Aspergillus niger): 16 µg/mL
- MIC 90 (Fusarium oxysoprum): 32 µg/mL
- MIC 90 (Candida albicans): 64 µg/mL
- MIC 90 (Neurospora crassa): 16 µg/mL
- MIC 90 (Cryptococcus): 16 µg/mL
- MIC 90 (Ustilago maydis): 32 µg/mL
- Potency towards Gram positive versus Gram negative bacteria [2]: higher potency towards Gram positive

Molecule: FKLRAKIKVRLRAKIKL [D4E1, reference compound]
- MIC 90 (Escherichia coli): 2 µg/mL
- ROS generation (Candida albicans cells [3]): higher
- Antifungal potency in words, all the cultures tested [1]: most potent
- MIC 90 (Staphylococcus aureus): 2 µg/mL
- MIC 90 (Pseudomonas aeruginosa): 2 µg/mL
- Y-H transition inhibition (Yeast-Hypha transition): 95.2%
- MIC 90 (Aspergillus niger): 16 µg/mL
- MIC 90 (Fusarium oxysoprum): 16 µg/mL
- MIC 90 (Candida albicans): 8 µg/mL
- MIC 90 (Neurospora crassa): 8 µg/mL
- MIC 90 (Cryptococcus): 4 µg/mL
- MIC 90 (Ustilago maydis): 32 µg/mL
- Relative potency in membrane damage and ROS generation (Candida albicans cells [4]): more potent
